# Data published in patent US12441976B2, “Process for reducing the activity of microbial contamination in a yeast medium” (Lallemand Hungary Liquidity Management LLC, priority 2020, dated 2025).
# Test system: contaminating wild-type microbial cells (obtained from a commercial plant)
# Test: laboratory scale model: antimicrobial treatment of pasteurized corn mash, change in pH after 12 hours
# Format: cell-based
# Protocol: A laboratory model has been developed to characterize the microbial activity of various components (in isolation and in combination). Briefly, cycloheximide and glucose are added to a pasteurized corn mash (step 010). At step 020, the pasteurized mash was supplemented with an antimicrobial composition and submitted to an acidic treatment. More specifically, at substep 021, an antimicrobial composition was added to the pasteurized mash. Then, at substep 022, contaminating wild-type microbial cells (obtained from a commercial plant) were added. Afterwards, at substep 023, the mash was submitted to an acidic treatment with sulfuric acid. The mash was held in such acidic conditions for 30 minutes at 33° C. (step 030). A base was then added to the acidic mash to increase the pH of the mixture (to a level suitable for the growth and metabolic activity of yeasts, step 040). The neutralized mash obtained after step 040 was maintained at 12 hours at 33° C. (step 050). Step 050 was used to allow, if any, the bacterial growth to measure the antimicrobial efficiency of the different treatments. At step 060, the pH and the presence of different metabolites (using HPLC) were determined.
Molecule,"inhibition, in words (organic acid alone, 0.1% w/v, pH 3.2)","antimicrobial effectiveness, in words (100 ppm nisin added after the pH was raised to 5.5)"
O=CO [formate],greater inhibition than acetate or D/L lactate only,–
nisin,–,more effective than adding nisin as a part of the antimicrobial blend
